According to article PMC3606385 (PLoS ONE, 2013):
Several values for one entry are separate records, joined by “and”; a condition that tells them apart may be missing. Equal entries are not always repeated. Entries after “also recorded” stand apart in the source; their conditions may differ. Where two headings read alike, the source gives them in different places. Marks after values point to notes of the source that are not given here.

Assays:
Human 11β-HSD1 [1] = target: T1, Human 11β-HSD1 (Homo sapiens, UniProt P28845); test: 11β-HSD1 assay in intact CHOP cells transfected with human HSD11B1; format: cell-based
T1 construct: expressed in transfected cells; host or cells: CHOP cells (transient, FuGENE)
T1 sequence (P28845 whole entry): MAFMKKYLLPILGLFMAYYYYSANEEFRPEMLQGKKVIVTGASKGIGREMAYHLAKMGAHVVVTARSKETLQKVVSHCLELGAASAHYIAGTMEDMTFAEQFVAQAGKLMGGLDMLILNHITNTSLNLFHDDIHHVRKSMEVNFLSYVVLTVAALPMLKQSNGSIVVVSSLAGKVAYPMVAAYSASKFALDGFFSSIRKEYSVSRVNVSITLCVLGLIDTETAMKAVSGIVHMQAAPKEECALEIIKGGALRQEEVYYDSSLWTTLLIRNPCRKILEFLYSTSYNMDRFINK
Method: (§1) An expression plasmid was constructed to express human 11β-HSD1 (HSD11B1) cDNA in pcDNA I expression vector from its original human HSD11B1 vector (pBluescriptSK+).[15]. The Escherichia coli transformants carrying an insert were selected by colony hybridization, and a clone with the insert in the correct orientation relative to the vector T7 promoter was identified by restriction mapping. All transfections were carried out on 80% confluent cultures in 12-well plates. Aliquots of 1 µg HSD11B1 pcDNA I were transfected into mammalian CHOP cells with the FuGENE Transfection Reagent (Roche) according to manufacturer's protocol. Cells were allowed to grow for 24 hours in media containing 10% fetal bovine serum. Then media were removed and cells were harvested for 11β-HSD1 activity assay.
11β-HSD1 reductase activity was performed in intact cells using endogenous cofactor NADPH as described previously. […] 25×10^3 cells were added to each tube to initiate the reaction and the reaction mixture was incubated for up to 2 hrs, during which the reaction is within the linear range. At the end of reaction, the reaction was stopped by adding 2 ml ice-cold ether. The steroids were extracted, and the organic layer was dried under nitrogen. The steroids were separated chromatographically on thin layer plates in chloroform and methanol (90∶10, v/v), and the radioactivity was measured using a scanning radiometer (System AR2000, Bioscan Inc., Washington, DC) as described previously. The percentage conversion of 11DHC to CORT or cortisone to cortisol was calculated by dividing the radioactive counts identified as 11-OH-steroids by the total counts.
(§2) The IC50 was determined by adding different concentrations of each compound in the 11β-HSD1 or 11β-HSD2 reaction as described. The mode of inhibition was assayed by adding various concentrations of steroid substrates in the presence of an inhibitor as described.

Human 11β-HSD2 = target: T2, Human 11β-HSD2 (Homo sapiens, UniProt P80365); test: 11β-HSD2 assay in human kidney microsomes; format: biochemical; details: human kidney microsomes
T2 construct: tissue Gentest (Woburn, MA); host or cells: human kidney microsomes
T2 sequence (P80365 1-405): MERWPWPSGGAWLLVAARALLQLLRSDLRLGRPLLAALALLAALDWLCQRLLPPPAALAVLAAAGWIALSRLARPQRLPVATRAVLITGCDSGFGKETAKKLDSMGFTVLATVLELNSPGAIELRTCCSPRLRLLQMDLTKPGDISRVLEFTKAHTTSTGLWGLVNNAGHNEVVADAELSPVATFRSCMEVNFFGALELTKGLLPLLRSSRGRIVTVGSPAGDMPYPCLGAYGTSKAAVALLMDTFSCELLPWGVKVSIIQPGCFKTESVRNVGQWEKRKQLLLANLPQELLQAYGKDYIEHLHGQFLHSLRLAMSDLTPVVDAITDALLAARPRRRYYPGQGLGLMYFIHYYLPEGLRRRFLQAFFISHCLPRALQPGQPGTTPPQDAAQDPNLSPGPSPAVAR
Method: The rat and human kidney microsomes were used for 11β-HSD2 sources. 11β-HSD2 activity was performed in the microsome according to a previously described method. In brief, the assay tubes contained 25 nM substrate CORT (for rat) or cortisol (for human), spiked with 30,000 cpm their respective ^3H-11β-hydroxyl steroid, 0.2 mM NAD+ and 0.1 mM DTT in the PBS buffer. 8 (rat) or 20 (human) µg kidney microsomes were added to each tube to initiate the reaction and the reaction mixture was incubated for up to 3 hrs, during which the reaction is within the linear range. The rest procedure was similar to 11β-HSD1 assay. The percentage conversion of CORT to 11DHC or cortisol to cortisone was calculated by dividing the radioactive counts identified as 11keto-steroids by the total counts.
as §2

Human 11β-HSD1 [2] = target: T1, Human 11β-HSD1; test: 11β-HSD1 assay in microsomes from CHOP cells transfected with human HSD11B1; format: biochemical
Method: as §1
(§3) The rat testis and liver or human liver microsomes were used for 11β-HSD1 assay. 11β-HSD1 activity was performed in the microsome according to a previously described method. […] 2 µg microsomes were added to each tube to initiate the reaction and the reaction mixture was incubated for up to 2 hrs, during which the reaction is within the linear range. The rest procedure was similar to 11β-HSD1 assay in intact cells.
as §2

Rat 11β-HSD1 = target: T3, Rat 11β-HSD1 (Rattus norvegicus, UniProt P16232); test: 11β-HSD1 assay in adult rat testis microsomes; format: biochemical
T3 construct: endogenous in cells; host or cells: primary adult Sprague-Dawley rat Leydig cells
T3 sequence (P16232 whole entry): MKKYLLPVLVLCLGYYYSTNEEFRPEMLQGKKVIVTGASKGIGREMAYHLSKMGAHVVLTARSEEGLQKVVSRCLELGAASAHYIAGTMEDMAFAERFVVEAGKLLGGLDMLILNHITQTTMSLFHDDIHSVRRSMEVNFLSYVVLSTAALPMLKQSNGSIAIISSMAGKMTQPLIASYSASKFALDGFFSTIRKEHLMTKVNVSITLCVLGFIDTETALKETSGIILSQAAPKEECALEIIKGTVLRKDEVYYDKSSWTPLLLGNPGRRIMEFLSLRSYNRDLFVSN
Method: Rats were euthanized by CO2, and livers, testes and kidneys were collected. Rat liver, testis and kidney microsomes were prepared as described previously. In brief, rat liver and kidney were homogenized in […] PBS buffer containing 0.25 M sucrose, and nuclei and large cell debris were removed by centrifugation at 1500× g for 10 min. The post-nuclear supernatants were centrifuged twice at 105,000×g, the resultant microsomal pellets were resuspended. Protein contents were measured by Bio-Rad Dye Reagent Concentrate (Cat.#500-0006). Microsomes were used for measurement of 11β-HSD1 and 11β-HSD2 activities.
as §3, §2

[3] = tested on: Sprague-Dawley rats with high-fat-diet-induced metabolic syndrome; test: High-fat-diet-induced metabolic syndrome treatment in rats; format: in vivo, rat; details: for Effect on serum LDL / Effect on serum glucose / Effect on serum total cholesterol / Effect on serum triglyceride (Tg): 200 mg/kg
Method: By the end of curcumin treatment, rats were euthanized. The body, liver, kidney and testis weights were recorded. Sera were collected after placing the bloods at room temperature for 25 min and centrifuged at 1500 g/min for 20 minutes. Sera were used for measurement of serum glucose, and lipid analysis. Serum glucose, total cholesterol, low density […], apolipoprotein A1 is (APOA1) and apolipoprotein B (APOB) were measured using a Hitachi 7600 biochemical analyzer (Hitachi, Japan) according to standard clinical protocol.

[4] = human, oral doses up to 8 g; cited from earlier work
db/db mice = details: cited from earlier work
[5] = HFD rats, 200 mg/kg curcumin, 2 months, vs HFD
[6] = HFD rats, 200 mg/kg curcumin, 2 months, vs HFD, listed as Curcumin
[7] = HFD rats, 200 mg/kg curcumin, 2 months, vs HFD, listed as curcumin
[8] = HFD rats, 200 mg/kg/day gavage, 2 months, Mean ± SEM, n = 10

**Q.** For `COc1cc(/C=C/C(=O)CC(=O)/C=C/c2ccc(O)c(OC)c2)ccc1O` [1 (Curcumin), Curcumin], which IC50 (Human 11β-HSD1 [1]; CHOP cells transfected with human HSD11B1, read-out: Human 11β-HSD1 IC50 (nM) in CHOP cells) is on record?
**A.** 2300 nM

**Q.** And the IC50 (Human 11β-HSD1 [1]; IC50 human 11β-HSD1 in intact cells, intact CHOP cells transfected with human HSD11B1)?
**A.** 5780 ± 2220 nM

**Q.** And the IC50 (Human 11β-HSD1 [1]; intact CHOP cells transfected with human HSD11B1, read-out: IC50 human 11β-HSD1 in intact cells)?
**A.** 2290 nM and 2000 to 6000 nM and 2300 nM

**Q.** What about the IC50 (Human 11β-HSD2; read-out: IC50 (nM) Human 11β-HSD2) of the same compound?
**A.** 14600 nM

**Q.** What about the IC50 (Human 11β-HSD2; read-out: IC50 human 11β-HSD2) of the same compound?
**A.** 14600 nM

**Q.** And the IC50 (Human 11β-HSD1 [2])?
**A.** 10.6 ± 7.17 µM

**Q.** And the IC50 (Rat 11β-HSD1)?
**A.** 4.18 ± 0.24 µM

**Q.** And the “Effect on lipid profiles / HFD-induced dyslipidemia” value ([3]; 200 mg/kg/day oral, HFD rats)?
**A.** effectively improved; also recorded: effectively prevented

**Q.** And the “Effect on serum APOA1” value [3, 5]?
**A.** significantly lowered

**Q.** And the “Effect on serum APOB” value [3, 5]?
**A.** significantly lowered

**Q.** And the “Effect on serum LDL” value [3, 6]?
**A.** reduced

**Q.** And the “Effect on serum glucose” value [3, 6]?
**A.** reduced

**Q.** What about the “Effect on serum total cholesterol” value [3, 6] of the same compound?
**A.** reduced

**Q.** And the “Effect on serum triglyceride (Tg)” value [3, 6]?
**A.** reduced

**Q.** And the “Effect on serum LDL” value [3, 7]?
**A.** significantly lowered

**Q.** And the “Effect on serum glucose” value [3, 7]?
**A.** significantly lowered

**Q.** And the “Effect on serum total cholesterol” value [3, 7]?
**A.** significantly lowered

**Q.** And the “Effect on serum triglyceride (Tg)” value [3, 7]?
**A.** significantly lowered

**Q.** And the “Body weight (g)” value [3, 8]?
**A.** 324.8±6.614^b g

**Q.** What about the “Kidney(g)” value [3, 8] of the same compound?
**A.** 1.309±0.0756^a g

**Q.** And the “Liver(g)” value [3, 8]?
**A.** 10.67±0.297^a g

**Q.** And the “Testis(g)” value [3, 8]?
**A.** 2.664±0.1012^a g

**Q.** And the “Weight Gain(g)” value [3, 8]?
**A.** 136.3±6.516^c g

**Q.** And the “Effect on HFD-induced increase of body weight gain” value ([3]; two months of treatment)?
**A.** reduced

**Q.** What about the “Effect on HFD-induced increase of liver weight” value ([3]; two months of treatment) of the same compound?
**A.** reduced

**Q.** What about the “Effect on kidney weight” value ([3]; two months of treatment) of the same compound?
**A.** did not affect

**Q.** And the “Effect on testis weight” value ([3]; two months of treatment)?
**A.** did not affect

**Q.** What about the “Adverse effects during treatment” value ([3]; two-month treatment, 200 mg/kg/day) of the same compound?
**A.** no adverse effects

**Q.** And the “Time to peak level after oral administration” value [4]?
**A.** ≤ 1 h

**Q.** What about the “Effect on body weights” value (db/db mice) of the same compound?
**A.** lowered

**Q.** What about the “Effect on insulin resistance” value (db/db mice) of the same compound?
**A.** corrected

**Q.** And the “Effect on serum glucose levels” value (db/db mice)?
**A.** significantly reduced
